Assay results taken from publication PMC9994763, “A Conformational Change in the N Terminus of SLC38A9 Signals mTORC1 Activation” (Structure (London, England : 1993), 2020).
Residue numbers refer to the chain shown, from its start.

Tests used:
Type in all cases: biochemical
[1] = molecular target: T1, drSLC38A9 (drSLC38A9^71-549) (Danio rerio, UniProt Q08BA4, N227Q/N235Q/N252Q/N263Q); assay: [3H]arginine uptake in proteoliposomes, filtration, […] min; conditions: outside pH 7.4, inside pH 5.0, room temperature; 0.5 uM labelled compound
T1 construct: gene slc38a9; residues 71-549 (N-plug kept); N-terminal His8-thrombin tag removed; Sf-9; liposomes; the printed 5A DNA also starts at residue 71
T1 sequence (Q08BA4 71-549 N227Q/N235Q/N252Q/N263Q): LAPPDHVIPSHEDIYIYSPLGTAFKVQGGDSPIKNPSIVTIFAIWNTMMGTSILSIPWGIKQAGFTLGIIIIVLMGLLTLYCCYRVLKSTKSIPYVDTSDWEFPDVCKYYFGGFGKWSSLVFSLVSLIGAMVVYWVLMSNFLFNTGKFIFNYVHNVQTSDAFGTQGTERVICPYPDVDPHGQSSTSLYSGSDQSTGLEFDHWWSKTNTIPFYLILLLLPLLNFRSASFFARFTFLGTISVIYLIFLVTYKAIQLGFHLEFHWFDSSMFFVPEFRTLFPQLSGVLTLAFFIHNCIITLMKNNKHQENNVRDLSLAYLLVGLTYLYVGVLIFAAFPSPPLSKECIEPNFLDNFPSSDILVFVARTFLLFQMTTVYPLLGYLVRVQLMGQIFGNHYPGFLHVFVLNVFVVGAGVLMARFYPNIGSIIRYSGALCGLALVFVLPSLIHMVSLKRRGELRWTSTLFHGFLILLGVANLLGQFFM

[2] = molecular target: T2, drSLC38A9^97-549 (N-terminal deletion, without N-plug) (Danio rerio, UniProt Q08BA4, N227Q/N235Q/N252Q/N263Q); assay: [3H]leucine uptake in proteoliposomes, filtration; conditions: 0.5 uM labelled compound, pH 5.0 assay buffer, room temperature; with or without 200 uM arginine
T2 construct: gene slc38a9; residues 97-549 (N-plug deleted); N-terminal His8-thrombin tag removed; Sf-9; liposomes
T2 sequence (Q08BA4 97-549 N227Q/N235Q/N252Q/N263Q): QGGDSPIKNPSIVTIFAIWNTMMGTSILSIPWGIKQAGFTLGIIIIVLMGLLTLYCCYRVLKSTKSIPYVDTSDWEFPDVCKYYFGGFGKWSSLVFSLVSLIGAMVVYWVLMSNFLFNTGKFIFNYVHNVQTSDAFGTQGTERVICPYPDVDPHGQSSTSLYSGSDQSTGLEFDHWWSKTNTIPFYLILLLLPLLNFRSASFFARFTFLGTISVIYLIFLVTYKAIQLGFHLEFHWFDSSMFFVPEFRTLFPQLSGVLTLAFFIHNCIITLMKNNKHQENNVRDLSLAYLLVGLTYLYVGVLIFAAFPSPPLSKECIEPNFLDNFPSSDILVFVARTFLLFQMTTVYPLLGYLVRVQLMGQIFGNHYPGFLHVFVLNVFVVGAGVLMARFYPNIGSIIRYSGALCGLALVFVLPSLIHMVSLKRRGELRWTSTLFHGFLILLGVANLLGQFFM

[3] = molecular target: T3, drSLC38A9 (drSLC38A9^71-549) (Danio rerio, UniProt Q08BA4, P79A/S80A/H81A/E82A/Y85A/N227Q/N235Q/N252Q/N263Q); assay: [3H]leucine uptake in proteoliposomes, filtration; conditions: 0.5 uM labelled compound, pH 5.0 assay buffer, room temperature; with or without 200 uM arginine
T3 construct: gene slc38a9; residues 71-549 (N-plug kept); N-terminal His8-thrombin tag removed; Sf-9; liposomes; the printed 5A DNA also starts at residue 71
T3 sequence (Q08BA4 71-549 P79A/S80A/H81A/E82A/Y85A/N227Q/N235Q/N252Q/N263Q): T1 sequence (Q08BA4 71-549 N227Q/N235Q/N252Q/N263Q) with P9A, S10A, H11A, E12A, Y15A

Row | Compound | [3H]arginine uptake in proteoliposomes, filtration, 5 min [1] | [3H]leucine uptake in proteoliposomes, filtration [2] | [3H]leucine uptake in proteoliposomes, filtration [3]
1 | N=C(N)NCCC[C@H](N)C(=O)O [arginine] | the construct studied structurally here and the wild-type drSLC38A9 transport arginine with similar rates | – | –
2 | CC(C)C[C@H](N)C(=O)O [leucine] | – | The mutant proteins show similar transport capacity for leucine regardless of whether arginine was added | The mutant proteins show similar transport capacity for leucine regardless of whether arginine was added
